Results on twelve compounds are retold here after PubChem BioAssay (NCI).

Test systems include MALME-3M melanoma; NCI-H522 lung; HL-60(TB) leukemia; NCI-H460 lung; U251 CNS; RXF 393 renal; SK-MEL-28 melanoma; DU-145 prostate; HOP-62 NSCLC; HCC-2998 colon.
Common to all, as to assay: inhibition of tumour cell growth, NCI panel, 48 h

Structures are written as SMILES.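 All cell lines were grown in 96-well plates and treated with compound for 48 hours. Abbreviation: GI50, concentration required for 50% inhibition of growth. The concentration for full growth arrest is given as TGI.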 Where a SMILES comes first, the peptide text is derived from it. The star is where a group is joined. Palmitoyl = CCCCCCCCCCCCCCCC(=O)*

Regarding `COc1ccc(N2C(=O)C3c4[nH]c5cc(C)ccc5c4C4CCC(C(C)(C)C)CC4C3C2=O)cc1` (centres undefined), the TGI in the assay with MALME-3M melanoma, in the assay with NCI-H522 lung, in the assay on HL-60(TB) leukemia, in the assay with NCI-H460 lung, with U251 CNS and with RXF 393 renal was over 10 µM throughout. Further, the TGI in the assay with SK-MEL-28 melanoma, in the assay with DU-145 prostate, in the assay with HOP-62 NSCLC and in the assay on HCC-2998 colon was over 10 µM throughout.
As to `Nc1ncnc2c1ccn2C/C=C/CO`, the TGI with MALME-3M melanoma, in the assay with NCI-H522 lung, with HL-60(TB) leukemia, in the assay on NCI-H460 lung, in the assay on U251 CNS and in the assay on RXF 393 renal was over 100 µM in each case. Also, the TGI in the assay on SK-MEL-28 melanoma, with DU-145 prostate, with HOP-62 NSCLC and with HCC-2998 colon was over 100 µM each time.
Regarding `OC(C#CCN1CCCC1)(c1ccccc1)c1ccccc1Cl` (centres undefined), the TGI is 41.6 µM in the assay with NCI-H522 lung; 68.3 µM with HL-60(TB) leukemia; 41.5 µM in the assay on NCI-H460 lung; 35.2 µM with U251 CNS; over 100 µM in the assay on RXF 393 renal; 32.2 µM in the assay with SK-MEL-28 melanoma. Further, the TGI with DU-145 prostate was over 100 µM; in the assay on HOP-62 NSCLC, 38.7 µM; in the assay on HCC-2998 colon it was 40.4 µM.
In the case of `Cc1ccc2c(c1)c1ccc3c(c1n2C)C(=O)C=CC3=O`, the TGI in the assay with MALME-3M melanoma was 3.8 µM; with NCI-H522 lung, 2.68 µM; in the assay on HL-60(TB) leukemia it was 1.69 µM; with NCI-H460 lung it was over 10 µM; in the assay on U251 CNS, over 10 µM; with RXF 393 renal, 3.46 µM. Further, the TGI in the assay on SK-MEL-28 melanoma was 4.76 µM; in the assay on DU-145 prostate, over 10 µM; with HOP-62 NSCLC, over 10 µM; in the assay with HCC-2998 colon, over 10 µM.
On to `CNc1[nH]c(=S)nc2sc3c(c12)CCCC3`, for which the TGI in the assay with MALME-3M melanoma, with NCI-H522 lung, in the assay on HL-60(TB) leukemia, in the assay with U251 CNS, in the assay on RXF 393 renal and with SK-MEL-28 melanoma was over 75 µM each time. Besides, the TGI with DU-145 prostate, with HOP-62 NSCLC and in the assay with HCC-2998 colon was over 75 µM throughout.
Turning to `O=C(c1ccccc1)c1ccc2c(c1)NC(=O)c1ccccc1SSc1ccccc1C(=O)N2`, the TGI with MALME-3M melanoma, in the assay with NCI-H522 lung, in the assay on HL-60(TB) leukemia, in the assay on NCI-H460 lung, in the assay on U251 CNS and in the assay with RXF 393 renal was over 100 µM each time. The TGI in the assay on SK-MEL-28 melanoma, with DU-145 prostate and in the assay with HOP-62 NSCLC was over 100 µM in each case.
Take `CCCCCCCCCCCCCCCC(=O)N1CCCC1C(=O)NCC(=O)NC(Cc1ccccc1)C(=O)N1CCCC1C(=O)NC(CO)C(=O)NC(Cc1ccc(O)cc1)C(=O)NC(CCCCN)C(=O)NC(CC(C)C)C(=O)NC(CCCN=C(N)N)C(=O)N1CCCC1C(=O)NCC(N)=O` (centres undefined) (Palmitoyl-PGFPSYKLRPG-NH2; configuration not given here): the GI50 with MALME-3M melanoma was 0.45 µM; in the assay with NCI-H522 lung, 25.1 µM; in the assay on HL-60(TB) leukemia it was 18.7 µM; in the assay with NCI-H460 lung, 19.4 µM; in the assay on RXF 393 renal, 23.2 µM; in the assay on SK-MEL-28 melanoma, 13.9 µM. For the same compound, the GI50 with DU-145 prostate was 18.3 µM; in the assay with HOP-62 NSCLC it was 22.9 µM; with HCC-2998 colon, 10.4 µM. In addition, the TGI is 5.73 µM with MALME-3M melanoma; 60.3 µM in the assay on NCI-H522 lung; 52.9 µM with HL-60(TB) leukemia; 41.2 µM with NCI-H460 lung; 53 µM with RXF 393 renal; 50.3 µM in the assay on SK-MEL-28 melanoma. The TGI in the assay with DU-145 prostate worked out at 39.9 µM; in the assay on HOP-62 NSCLC, 48 µM; in the assay on HCC-2998 colon, 24.1 µM.
On to `O=[N+]([O-])c1cc2oc(CSc3ccccc3)nc2cc1Cl`, for which the TGI in the assay on MALME-3M melanoma was over 100 µM; in the assay on NCI-H522 lung it was over 100 µM; in the assay on HL-60(TB) leukemia it was over 100 µM; in the assay on NCI-H460 lung, 81.2 µM; in the assay with U251 CNS, 66.6 µM; in the assay with RXF 393 renal it was 93 µM. Moreover, the TGI in the assay on SK-MEL-28 melanoma is over 100 µM; in the assay with DU-145 prostate, over 100 µM; in the assay with HOP-62 NSCLC, over 100 µM; with HCC-2998 colon, 64.5 µM.
On to `Cc1nc2ccccc2c(-n2cccn2)c1CCn1cccn1`, for which the TGI in the assay on MALME-3M melanoma, in the assay with NCI-H522 lung, with HL-60(TB) leukemia, in the assay on NCI-H460 lung, in the assay with U251 CNS and in the assay on RXF 393 renal was over 100 µM in each case. The TGI in the assay with SK-MEL-28 melanoma, in the assay on DU-145 prostate, with HOP-62 NSCLC and in the assay with HCC-2998 colon was over 100 µM throughout.
In the case of `Clc1ccc(C=NC23CC4CC(CC(C4)C2)C3)c(Cl)c1`, the TGI with MALME-3M melanoma, in the assay on NCI-H522 lung, in the assay on HL-60(TB) leukemia, in the assay with NCI-H460 lung, in the assay on U251 CNS and in the assay on RXF 393 renal was over 10 µM each time. In addition, the TGI with SK-MEL-28 melanoma, with DU-145 prostate, with HOP-62 NSCLC and with HCC-2998 colon was over 10 µM throughout.
With `CC(C)N1CCN(c2ccc(OCC3COC(Cn4cncn4)(c4ccc(Cl)cc4Cl)O3)cc2)CC1` (centres undefined), the TGI with MALME-3M melanoma was 22.2 µM; with NCI-H522 lung, 30.4 µM; in the assay with HL-60(TB) leukemia, 33.3 µM; in the assay with NCI-H460 lung it was 31.3 µM; in the assay with U251 CNS, 26.7 µM; in the assay on RXF 393 renal, 25 µM. Also, the TGI in the assay on SK-MEL-28 melanoma came out at 12.3 µM; in the assay on DU-145 prostate it was 31.5 µM; in the assay on HOP-62 NSCLC, 28.5 µM; in the assay with HCC-2998 colon it was 21.1 µM.
For `CC12c3c4ccc(C=O)c3Oc3ccc(C=O)c(c31)Oc1ccc(C=O)c(c12)O4`, the TGI in the assay with MALME-3M melanoma, in the assay with NCI-H522 lung, in the assay with HL-60(TB) leukemia, with NCI-H460 lung, in the assay on U251 CNS and with RXF 393 renal was over 25 µM throughout. Further, the TGI in the assay on SK-MEL-28 melanoma, in the assay with DU-145 prostate and with HOP-62 NSCLC was over 25 µM in each case.
